Publication PMC8212739 (Clinical and Translational Science, 2021)
Values belong to the compound of their own block, whether it stands above or below them.

Experiments:
[1] = system: CYP3A4; assay: in vitro; details: human, primary human hepatocytes (PHHs) cultured as 3D spheroids
[2] = system: PHHs in sandwich cultures; assay: Albumin production, hepatotoxicant sensitivity, sandwich cultures; assay type: cell-based; details: Homo sapiens, 48 h, read-out: EC50, albumin secretion
[3] = system: PHHs in spheroids; assay: LDH production, hepatotoxicant sensitivity, spheroids; assay type: cell-based; details: Homo sapiens, 48 h, read-out: EC50, LDH production
[4] = system: PHHs in sandwich cultures; details: sandwich cultures vs liver MPS
[5] = system: PHHs in liver MPS; assay: Albumin production, hepatotoxicant sensitivity, liver MPS; assay type: cell-based; details: Homo sapiens, 48 h, read-out: EC50, albumin secretion
[6] = system: PHHs in sandwich cultures; assay: LDH production, hepatotoxicant sensitivity, sandwich cultures; assay type: cell-based; details: Homo sapiens, 48 h, read-out: EC50, LDH production
[7] = in vitro; details: human, primary human hepatocytes (PHHs) cultured as 3D spheroids
[8] = system: PHHs in liver MPS; assay: LDH production, hepatotoxicant sensitivity, liver MPS; assay type: cell-based; details: Homo sapiens, 48 h, read-out: EC50, LDH production
[9] = in vitro; details: human, primary human hepatocytes (PHHs) in 2D sandwich cultures
[10] = system: PHHs in spheroids; assay: Albumin production, hepatotoxicant sensitivity, spheroids; assay type: cell-based; details: Homo sapiens, 48 h, read-out: EC50, albumin secretion
[11] = system: PHHs in spheroids; details: spheroids vs liver MPS
[12] = system: CYP3A4; assay: in vitro; details: human, primary human hepatocytes (PHHs) cultured in liver MPS
[13] = system: CYP3A4; assay: in vitro; details: human, primary human hepatocytes (PHHs) in 2D sandwich cultures
[14] = system: PHHs in the liver MPS; assay: Drug metabolism and phase II metabolites in the liver MPS
[15] = Stability of glucuronidated diclofenac in maintenance medium at 37°C; assay type: physicochemical; details: 50 µM
[16] = cited from earlier work

Compound: C[C@H]1O[C@@H](O[C@H]2[C@@H](O)C[C@H](O[C@H]3[C@@H](O)C[C@H](O[C@H]4CC[C@@]5(C)[C@H](CC[C@@H]6[C@@H]5C[C@@H](O)[C@]5(C)[C@@H](C7=CC(=O)OC7)CC[C@]65O)C4)O[C@@H]3C)O[C@@H]2C)C[C@H](O)[C@@H]1O [Digoxin, digoxin]
EC50 [2]: 157 µM
EC50 [3]: 8.1 µM
EC50 [5]: 41.6 µM
EC50 [6]: 102 µM
EC50 at 2 days [7]: 6.4 µM
EC50 [8]: 146 µM
EC50 at 2 days [9]: 122 µM
EC50 [10]: 5.4 µM
R, Spearman correlation of CYP3A4 response relative to liver MPS [11]: −0.04

EC50 at 2 days [9]: 23.8 µM
Compound: CC/C(=C(\c1ccccc1)c1ccc(OCCN(C)C)cc1)c1ccccc1 [Tamoxifen, tamoxifen]

Compound: Cc1c(C)c2c(c(C)c1O)CCC(C)(COc1ccc(CC3SC(=O)NC3=O)cc1)O2 (stereo not drawn) [Troglitazone, troglitazone]
EC50 [2]: 2.6 µM
EC50 [3]: 94.2 µM
R, Spearman correlation of CYP3A4 response relative to liver MPS [4]: 0.77
EC50 [5]: 34.6 µM
EC50 [6]: 77.7 µM
Extent of metabolism of parent in liver MPS medium ([14]; 50 and 100 µM, 48 h of incubation): almost completely metabolized
EC50 at 2 days [7]: 67.1 µM
EC50 [8]: 407 µM
EC50 at 2 days [9]: 35.1 µM
EC50 [10]: 51.9 µM
R, Spearman correlation of CYP3A4 response relative to liver MPS [11]: 0.80

Concentration in liver MPS culture medium over time ([14]; 50 µM, 4, 8, 24 and 48 hours): decrease over time
Compound: O=C(O)Cc1ccccc1Nc1c(Cl)cccc1Cl [diclofenac]

Detection in the MPS medium ([14]; after 48 h, diclofenac dosed): not detected
Time of incubation to become unstable in solution [15]: ≤ 2 h
Compound: O=C(Cc1ccccc1Nc1c(Cl)cccc1Cl)O[C@@H]1O[C@H](C(=O)O)[C@@H](O)[C@H](O)[C@H]1O [glucuronidated diclofenac, diclofenac glucuronide]

Compound: C[C@H]1COc2c(N3CCN(C)CC3)c(F)cc3c(=O)c(C(=O)O)cn1c23 [levofloxacin]
Hepatotoxicity [16]: does not cause hepatotoxicity

Compound: N[C@@H]1[C@H]2CN(c3nc4c(cc3F)c(=O)c(C(=O)O)cn4-c3ccc(F)cc3F)C[C@@H]12 [trovafloxacin]
Hepatotoxicity in humans [16]: induces idiosyncratic hepatotoxicity
